The source of these data is US20210338550A1, “ANTIMICROBIAL MIXTURE CONTAINING 4-(3-ETHOXY-4-HYDROXYPHENYL)BUTAN-2-ONE AND CHLORPHENESIN, AND COSMETIC COMPOSITION CONTAINING SAME” (L'OREAL, priority 2017, published 2021).

This assay has as its system Aspergillus niger ATCC 6275. The assay is described as follows: Determination of synergistic antimicrobial activity in MIC (96-well microplate, optical density at 620 nm). Type of assay: cell-based. The note with it: for microbial growth percentage: 32.5° C., 24 to 48 hours. From the text:
FIC Index=(MICa with B/MICa)+(MICb with A/MICb)
with: • MICa with B: minimum concentration of product A in the combination A+B which makes it possible to obtain an inhibitory effect. • MICb with A: minimum concentration of product B in the combination A+B which makes it possible to obtain the inhibitory effect. • MICa: minimum inhibitory concentration of product A alone. • MICb: minimum inhibitory concentration of product B alone.
As regards the combinations tested, MICa with b and MICb with a are the respective concentrations of A and of B in the combinations which make it possible to obtain a microbial growth percentage of less than or equal to 25%.
When the FIC index value is less than or equal to 1, it is considered that the combination of test compounds has a synergistic effect.
The microbial strain Aspergillus niger ATCC 6275, and a double-concentration Sabouraud broth liquid culture medium supplemented with polyoxyethylenated (20 OE) sorbitan monopalmitate (Tween 40 from Croda) and Phytagel® BioReagent were used (i.e. a mixture of 5 g of Phytagel+0.6 g Tween 40+60 g of Sabouraud broth).
A 96-well microplate at an incubation temperature of 32.5° C. is used.
The incubation time of the microplate is from 24 to 48 hours aerobically.
A 10% (weight/volume) stock solution was prepared by mixing 1 g of compound in 9 ml of aqueous 1‰ agar solution. Successive dilutions were made with the 1‰ agar solution. • Test of compounds A and B alone
50 μL of each of the daughter solutions obtained containing compound A or B are added to the microplate wells. 100 μL of Sabouraud liquid nutrient broth inoculated with the strain Aspergillus niger and 50 μL of aqueous 1‰ agar solution are also added thereto. • Test of compounds A and B as a mixture
50 μL of each of the daughter solutions obtained containing compound A and 50 μL of each of the daughter solutions obtained containing compound B are added to the microplate wells. 100 μL of Sabouraud liquid nutrient broth inoculated at double concentration with the strain Aspergillus niger are also added thereto.
A positive microbial growth control was also prepared. The positive microbial growth control corresponds to a mixture of 100 μL of aqueous 1‰ agar solution with 100 μL of Sabouraud liquid nutrient broth inoculated at double concentration with the strain Aspergillus niger in the absence of compounds A and B.
An absorbance control was performed in parallel on compounds A and B alone. This control corresponds to 100 μL of double concentration sterile Sabouraud liquid nutrient broth+100 μL of double concentration compound A or B.
In the three cases (absorbance control, growth control and test), the final volume present in each of the microplate wells is 200 μL.
In the two cases (test and control), the inoculum represents the concentration of the strain Aspergillus niger present in the final volume of the wells (200 μL) and is between 2 and 6×10^5 cfu/ml of Aspergillus niger.
The minimum inhibitory concentration (MIC) of each compound A and B alone and in combination was determined in a known manner by means of optical density measurements at a wavelength of 620 nm.

[1] abbreviates: first concentration giving growth <= 25%.

For the compound `CCOc1cc(CCC(C)=O)ccc1O` [A, 4-(3-ethoxy-4-hydroxyphenyl)butan-2-one], the microbial growth percentage (0.0625 weight % A alone (0 B)) was 79%, the microbial growth percentage (0.125 weight % A alone (0 B)) is recorded as 41% and the microbial growth percentage (0.25 weight % A alone (0 B)) is reported as 5%. Besides, the “% MIC of A alone” value under setting [1] was 0.25%.
As to `OCC(O)COc1ccc(Cl)cc1` (centres unmarked) [B, 3-(4-chlorophenoxy)-1,2-propanediol], the microbial growth percentage is, setting by setting: (0.0125 weight % B alone (0 A)) 71%; (0.25 weight % B alone (0 A)) 38%; (0.5 weight % B alone (0 A)) 1%. The “% MIC of B alone” value under setting [1] turned out to be 0.5%.
